According to patent US8211935B2, “Heterocyclic derivatives for modulation of calcium channels” (Vertex Pharmaceuticals Incorporated, priority 2004, dated 2012):

target: T1, CaV2.2 (Homo sapiens, UniProt Q00975); assay: VIPR optical membrane potential assay with electrical stimulation; assay type: cell-based; conditions: not given
T1 construct: expressed in transfected cells; host or cells: HEK293
How it was run: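 HEK293 cells stably expressing CaV2.2, stained with CC2-DMPE (10 μM final) and oxonol voltage-sensitive dyes, compound added with BaCl2. Membrane potential response evoked by 3-5 s electrical stimulation. Read as background-subtracted 460/580 nm emission ratio, response R=Rf/Ri, normalized to mibefradil positive and no-drug negative controls.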

T1 sequence (Q00975 whole entry): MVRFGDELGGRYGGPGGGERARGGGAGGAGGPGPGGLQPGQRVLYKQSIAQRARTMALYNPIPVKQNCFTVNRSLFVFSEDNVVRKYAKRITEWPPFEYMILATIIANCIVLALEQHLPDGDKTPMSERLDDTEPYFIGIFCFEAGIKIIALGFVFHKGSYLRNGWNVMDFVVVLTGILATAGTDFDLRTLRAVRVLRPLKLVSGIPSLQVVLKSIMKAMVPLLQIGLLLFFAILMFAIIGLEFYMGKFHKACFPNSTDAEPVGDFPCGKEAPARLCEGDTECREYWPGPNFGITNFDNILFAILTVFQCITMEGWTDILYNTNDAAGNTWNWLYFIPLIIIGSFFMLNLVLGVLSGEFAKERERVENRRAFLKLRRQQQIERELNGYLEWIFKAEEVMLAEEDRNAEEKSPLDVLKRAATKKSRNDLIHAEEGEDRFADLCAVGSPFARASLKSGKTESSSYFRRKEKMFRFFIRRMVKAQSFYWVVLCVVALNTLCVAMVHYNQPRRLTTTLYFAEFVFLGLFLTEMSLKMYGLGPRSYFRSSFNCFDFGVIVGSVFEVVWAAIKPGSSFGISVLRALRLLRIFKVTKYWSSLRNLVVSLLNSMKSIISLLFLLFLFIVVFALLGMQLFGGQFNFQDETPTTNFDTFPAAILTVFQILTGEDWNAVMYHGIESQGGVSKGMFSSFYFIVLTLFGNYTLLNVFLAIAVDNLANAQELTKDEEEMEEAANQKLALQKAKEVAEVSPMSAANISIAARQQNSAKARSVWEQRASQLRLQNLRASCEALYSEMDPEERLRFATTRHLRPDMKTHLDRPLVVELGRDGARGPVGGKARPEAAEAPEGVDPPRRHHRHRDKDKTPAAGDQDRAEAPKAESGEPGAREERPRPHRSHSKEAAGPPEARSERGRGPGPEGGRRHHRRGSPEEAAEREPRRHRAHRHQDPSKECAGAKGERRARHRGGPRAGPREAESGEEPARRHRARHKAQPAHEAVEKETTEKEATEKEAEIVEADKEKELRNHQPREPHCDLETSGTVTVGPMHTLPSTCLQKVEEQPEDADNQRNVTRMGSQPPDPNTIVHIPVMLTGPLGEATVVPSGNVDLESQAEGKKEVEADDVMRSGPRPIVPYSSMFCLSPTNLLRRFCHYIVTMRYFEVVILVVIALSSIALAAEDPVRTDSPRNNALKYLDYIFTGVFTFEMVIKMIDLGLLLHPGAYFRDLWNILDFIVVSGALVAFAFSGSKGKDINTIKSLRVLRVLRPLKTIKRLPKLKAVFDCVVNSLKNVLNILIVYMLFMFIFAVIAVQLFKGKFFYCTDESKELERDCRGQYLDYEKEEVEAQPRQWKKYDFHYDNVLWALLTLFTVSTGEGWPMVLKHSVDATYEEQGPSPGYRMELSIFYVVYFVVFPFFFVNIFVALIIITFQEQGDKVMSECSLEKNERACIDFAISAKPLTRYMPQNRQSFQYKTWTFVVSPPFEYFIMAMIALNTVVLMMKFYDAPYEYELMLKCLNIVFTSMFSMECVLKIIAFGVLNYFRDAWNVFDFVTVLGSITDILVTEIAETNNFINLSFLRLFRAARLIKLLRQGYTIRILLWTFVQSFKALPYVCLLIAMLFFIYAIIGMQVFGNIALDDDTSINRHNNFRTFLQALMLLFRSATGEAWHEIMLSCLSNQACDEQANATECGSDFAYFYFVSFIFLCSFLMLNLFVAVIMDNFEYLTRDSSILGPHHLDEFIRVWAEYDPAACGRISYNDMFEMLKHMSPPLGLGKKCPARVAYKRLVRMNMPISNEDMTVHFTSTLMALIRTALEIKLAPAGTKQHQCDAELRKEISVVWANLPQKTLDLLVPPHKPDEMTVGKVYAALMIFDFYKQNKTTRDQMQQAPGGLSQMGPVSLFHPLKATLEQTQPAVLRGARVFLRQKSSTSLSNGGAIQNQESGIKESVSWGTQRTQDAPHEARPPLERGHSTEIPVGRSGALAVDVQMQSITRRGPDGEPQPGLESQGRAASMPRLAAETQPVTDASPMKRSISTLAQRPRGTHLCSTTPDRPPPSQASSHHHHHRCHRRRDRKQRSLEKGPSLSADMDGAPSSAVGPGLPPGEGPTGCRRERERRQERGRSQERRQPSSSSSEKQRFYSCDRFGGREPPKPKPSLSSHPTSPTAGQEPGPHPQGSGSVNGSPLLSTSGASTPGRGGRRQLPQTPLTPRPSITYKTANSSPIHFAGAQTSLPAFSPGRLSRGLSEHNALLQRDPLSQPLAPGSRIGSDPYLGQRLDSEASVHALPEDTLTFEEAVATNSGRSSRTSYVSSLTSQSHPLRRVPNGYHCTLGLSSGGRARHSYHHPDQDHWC
T1 sequence (P54284 whole entry partner): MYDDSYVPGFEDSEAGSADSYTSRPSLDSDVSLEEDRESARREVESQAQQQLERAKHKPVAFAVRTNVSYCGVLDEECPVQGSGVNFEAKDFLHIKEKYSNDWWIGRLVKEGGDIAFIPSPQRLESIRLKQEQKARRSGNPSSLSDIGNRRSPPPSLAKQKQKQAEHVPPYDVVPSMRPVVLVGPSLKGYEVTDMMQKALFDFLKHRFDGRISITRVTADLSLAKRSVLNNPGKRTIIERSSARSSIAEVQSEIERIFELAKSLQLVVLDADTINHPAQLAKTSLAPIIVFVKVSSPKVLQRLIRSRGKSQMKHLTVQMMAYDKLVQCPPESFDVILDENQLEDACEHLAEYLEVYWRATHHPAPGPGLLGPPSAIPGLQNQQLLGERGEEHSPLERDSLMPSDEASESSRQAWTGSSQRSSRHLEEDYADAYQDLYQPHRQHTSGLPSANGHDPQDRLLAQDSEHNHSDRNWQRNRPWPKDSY
T1 sequence (P54289 25-946 partner limits assumed): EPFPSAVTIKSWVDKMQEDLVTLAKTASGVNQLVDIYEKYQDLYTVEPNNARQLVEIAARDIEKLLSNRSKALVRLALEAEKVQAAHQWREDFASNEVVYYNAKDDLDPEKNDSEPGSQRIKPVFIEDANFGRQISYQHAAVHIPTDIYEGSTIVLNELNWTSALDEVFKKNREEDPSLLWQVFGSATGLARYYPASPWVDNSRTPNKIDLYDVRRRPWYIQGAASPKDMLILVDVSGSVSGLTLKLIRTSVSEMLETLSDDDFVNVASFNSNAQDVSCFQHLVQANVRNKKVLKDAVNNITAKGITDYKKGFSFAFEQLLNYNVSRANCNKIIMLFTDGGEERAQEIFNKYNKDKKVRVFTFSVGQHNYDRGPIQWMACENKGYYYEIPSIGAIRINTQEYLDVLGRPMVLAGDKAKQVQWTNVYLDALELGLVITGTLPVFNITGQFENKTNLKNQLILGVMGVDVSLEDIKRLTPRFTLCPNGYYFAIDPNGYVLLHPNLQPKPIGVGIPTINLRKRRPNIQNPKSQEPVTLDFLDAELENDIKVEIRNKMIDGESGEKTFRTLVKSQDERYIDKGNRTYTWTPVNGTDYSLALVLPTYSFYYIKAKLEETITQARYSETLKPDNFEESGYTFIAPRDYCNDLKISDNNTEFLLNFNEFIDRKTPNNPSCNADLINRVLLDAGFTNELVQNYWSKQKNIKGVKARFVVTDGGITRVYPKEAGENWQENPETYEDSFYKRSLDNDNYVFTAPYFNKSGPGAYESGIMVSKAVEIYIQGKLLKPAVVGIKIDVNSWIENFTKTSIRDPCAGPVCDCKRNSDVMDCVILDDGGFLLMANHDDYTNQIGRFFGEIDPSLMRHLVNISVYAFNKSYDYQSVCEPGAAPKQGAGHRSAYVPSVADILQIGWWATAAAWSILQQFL
T1 sequence (P54289 947-1103 partner limits assumed): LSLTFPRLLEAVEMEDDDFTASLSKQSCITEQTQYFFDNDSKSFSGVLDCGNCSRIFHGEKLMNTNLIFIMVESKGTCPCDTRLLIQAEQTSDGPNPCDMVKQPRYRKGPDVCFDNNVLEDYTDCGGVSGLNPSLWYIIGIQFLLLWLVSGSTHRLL

SMILES	IC50
Cc1c(C(=O)N2CCC3(CC2)OCCO3)oc2ccc(S(=O)(=O)N3CCCCCC3)cc12 [compound 161]	5 to 20 µM
Cc1c(C(=O)N2CCC3(CC2)OCCO3)[nH]c2ccc(S(=O)(=O)N3CC(C)CC(C)C3)cc12 (stereo not shown) [compound 253]	< 5 µM
CC1CCN(S(=O)(=O)c2ccc3[nH]c(C(=O)N4CCC5(CC4)OCCO5)cc3c2)CC1 [compound 54]	5 to 20 µM

same assay, conditions: Table 3, biological assay data; read-out: IC50

SMILES	IC50
Cc1c(C(=O)NCc2ccccc2)oc2ccc(S(=O)(=O)N3CCCCCC3)cc12 [compound 44]	5 to 20 µM
CN1CCN(C(=O)c2cc3cc(S(=O)(=O)N4CCCCCC4)ccc3[nH]2)CC1 [compound 220]	5 to 20 µM
Cc1c(C(=O)NC2CCCCC2)oc2ccc(S(=O)(=O)N3CCC4(CC3)OCCO4)cc12 [compound 371]	5 to 20 µM
Cc1c(C(=O)NCCCN2CCCC2)oc2ccc(S(=O)(=O)N3CC(C)CC(C)C3)cc12 (stereo not shown) [compound 180]	< 5 µM
O=C(c1cc2cc(S(=O)(=O)N3CCCCCC3)ccc2o1)N1CCCCCC1 [compound 169]	< 5 µM
Cc1c(C(=O)NCCN2CCOCC2)oc2ccc(S(=O)(=O)N3CCC(C)CC3)cc12 [compound 129]	5 to 20 µM
CCNC(=O)c1oc2ccc(S(=O)(=O)N3CC(C)CC(C)C3)cc2c1C (stereo not shown) [compound 212]	< 5 µM
CCOC(=O)N1CCN(C(=O)c2cc3cc(S(=O)(=O)N4CC(C)CC(C)C4)ccc3[nH]2)CC1 (stereo not shown) [compound 415]	< 5 µM
CC1CCN(S(=O)(=O)c2ccc3[nH]c(C(=O)N4CCN(C)CC4)cc3c2)CC1 [compound 313]	5 to 20 µM
CC1CCN(C(=O)c2cc3cc(S(=O)(=O)N4CCC(C)CC4)ccc3o2)CC1 [compound 273]	< 5 µM
CC1CCCN(C(=O)c2cc3cc(S(=O)(=O)N4CCCCCC4)ccc3[nH]2)C1 (stereo not shown) [compound 55]	< 5 µM
CC1CCN(S(=O)(=O)c2ccc3[nH]cc(C(N)=O)c3c2)CC1 [compound 306]	< 20 µM
CCN(CC)S(=O)(=O)c1ccc2oc(C(=O)NC3CCC(C)CC3)c(C)c2c1 (stereo not shown) [compound 215]	5 to 20 µM
Cc1c(C(=O)N(C)C)oc2ccc(S(=O)(=O)N3CCOCC3)cc12 [compound 259]	< 20 µM
CC1CCN(S(=O)(=O)c2ccc3oc(C(=O)NCC4CCOCC4)cc3c2)CC1 [compound 111]	5 to 20 µM
Cc1c(C(=O)NC2CCCC2)n(C)c2ccc(S(=O)(=O)N3CCC(C)CC3)cc12 [compound 174]	< 5 µM
Cc1c(C(=O)N2CCCC2)oc2ccc(S(=O)(=O)N3CC(C)CC(C)C3)cc12 (stereo not shown) [compound 414]	< 5 µM
Cc1c(C(=O)NCCCc2ccccc2)oc2ccc(S(=O)(=O)N3CCCCCC3)cc12 [compound 94]	5 to 20 µM
CC1CC(C)CN(S(=O)(=O)c2ccc3oc(C(=O)NC4CCCC4)cc3c2)C1 (stereo not shown) [compound 122]	< 5 µM
CCCCN(C)C(=O)c1oc2ccc(S(=O)(=O)N3CC(C)CC(C)C3)cc2c1C (stereo not shown) [compound 321]	< 5 µM
Cc1c(C(=O)NCCCc2ccccc2)[nH]c2ccc(S(=O)(=O)N3CCC(C)CC3)cc12 [compound 223]	< 5 µM
CN1CCN(C(=O)c2cc3cc(S(=O)(=O)N4CCCCCC4)ccc3n2S(=O)(=O)c2ccccc2)CC1 [compound 135]	5 to 20 µM
Cc1c(C(=O)NC(C)C)oc2ccc(S(=O)(=O)N3CCC(C)CC3)cc12 [compound 411]	< 5 µM
Cc1c(C(=O)NCC2COc3ccccc3O2)oc2ccc(S(=O)(=O)N(C)C3CCCCC3)cc12 (stereo not shown) [compound 200]	5 to 20 µM
Cc1c(C(=O)N2CCN(C)CC2)oc2ccc(S(=O)(=O)N3CCCCCC3)cc12 [compound 152]	5 to 20 µM
CCCCN(C)C(=O)c1[nH]c2ccc(S(=O)(=O)N3CCC(C)CC3)cc2c1C [compound 117]	< 5 µM

SMILES	IC50
Cc1c(C(=O)N2CCCC2)oc2ccc(S(=O)(=O)N3CCCCC3)cc12 [compound 18]	5 to 20 µM
CC1CC(C)CN(S(=O)(=O)c2ccc3c(c2)cc(C(=O)N2CCN(C)CC2)n3S(=O)(=O)c2ccccc2)C1 (stereo not shown) [compound 419]	5 to 20 µM
COc1ccc(CNS(=O)(=O)c2ccc3oc(C(=O)NC4CC4)c(C)c3c2)cc1 [compound 255]	< 20 µM
O=C(NC1CCCC1)c1cc2cc(S(=O)(=O)N3CCCCCC3)ccc2o1 [compound 304]	< 5 µM
CCN(CC)S(=O)(=O)c1ccc2oc(C(=O)N(C(C)C)C(C)C)c(C)c2c1 [compound 278]	5 to 20 µM
Cc1c(C(=O)NC(C)C)[nH]c2ccc(S(=O)(=O)N3CCC(C)CC3)cc12 [compound 116]	5 to 20 µM
CCN(CC)S(=O)(=O)c1ccc2oc(C(=O)N3CCc4ccccc4C3)c(C)c2c1 [compound 85]	< 5 µM
Cc1c(C(=O)NCc2ccccc2)oc2ccc(S(=O)(=O)N3CCC(C)CC3)cc12 [compound 189]	5 to 20 µM
CC1CC(C)CN(S(=O)(=O)c2ccc3oc(C(=O)NCC4CCOCC4)cc3c2)C1 (stereo not shown) [compound 327]	< 5 µM
Cc1c(C(=O)N2CCCC(C)C2)oc2ccc(S(=O)(=O)N3CCCCCC3)cc12 (stereo not shown) [compound 102]	< 5 µM
Cc1c(C(=O)N2CC(C)CC(C)C2)[nH]c2ccc(S(=O)(=O)N3CC(C)CC(C)C3)cc12 (stereo not shown) [compound 60]	< 5 µM
COc1ccccc1CNC(=O)c1oc2ccc(S(=O)(=O)N3CCCCCC3)cc2c1C [compound 245]	5 to 20 µM
Cc1c(C(=O)N2CCSCC2)oc2ccc(S(=O)(=O)N3CCC(C)CC3)cc12 [compound 236]	5 to 20 µM
CCOC(=O)N1CCN(C(=O)c2cc3cc(S(=O)(=O)N4CCCCCC4)ccc3o2)CC1 [compound 410]	5 to 20 µM
CNC(=O)c1cc2cc(S(=O)(=O)N3CCCCCC3)ccc2[nH]1 [compound 303]	< 5 µM
Cc1c(C(=O)NCC2CCOCC2)oc2ccc(S(=O)(=O)N3CCCC(C)C3)cc12 (stereo not shown) [compound 383]	5 to 20 µM
Cc1c(C(=O)N2CC(C)CC(C)C2)oc2ccc(S(=O)(=O)N3CCCCC3)cc12 (stereo not shown) [compound 124]	5 to 20 µM
Cc1c(C(=O)NCCC2CCOCC2)oc2ccc(S(=O)(=O)N3CC(C)CC(C)C3)cc12 (stereo not shown) [compound 6]	< 5 µM
O=C(NCC1CCOCC1)c1cc2cc(S(=O)(=O)N3CCCCCC3)ccc2[nH]1 [compound 418]	< 5 µM
CCN(CC)C(=O)c1oc2ccc(S(=O)(=O)N(CC)CC)cc2c1C [compound 186]	< 20 µM
Cc1c(C(=O)N(C)C)oc2ccc(S(=O)(=O)N3CCCCC3)cc12 [compound 277]	< 20 µM
CCN(CC)S(=O)(=O)c1ccc2oc(C(=O)NCc3ccccc3)c(C)c2c1 [compound 250]	5 to 20 µM
CNC(=O)c1cc2cc(S(=O)(=O)N3CCCCCC3)ccc2o1 [compound 295]	5 to 20 µM
Cc1c(C(=O)N2CCN(C)CC2)oc2ccc(S(=O)(=O)N3CC(C)CC(C)C3)cc12 (stereo not shown) [compound 193]	5 to 20 µM
Cc1c(C(=O)NCC2CCCCC2)oc2ccc(S(=O)(=O)N3CCC(C)CC3)cc12 [compound 80]	5 to 20 µM
CCN(CC)S(=O)(=O)c1ccc2oc(C(=O)NCc3ccc(F)cc3)c(C)c2c1 [compound 337]	< 5 µM

SMILES	IC50
CNC(=O)c1[nH]c2ccc(S(=O)(=O)N3CCCCCC3)cc2c1C [compound 442]	5 to 20 µM
CCCN(CC1CC1)C(=O)c1cc2cc(S(=O)(=O)N3CC(C)CC(C)C3)ccc2[nH]1 (stereo not shown) [compound 254]	< 5 µM
CNC(=O)c1[nH]c2ccc(S(=O)(=O)N3CCC(C)CC3)cc2c1C [compound 30]	5 to 20 µM
CC1CC(C)CN(S(=O)(=O)c2ccc3c(c2)cc(C(=O)N(C)C)n3C)C1 (stereo not shown) [compound 461]	< 5 µM
Cc1c(C(=O)NCC2CCCO2)oc2ccc(S(=O)(=O)N3CC(C)CC(C)C3)cc12 (stereo not shown) [compound 32]	< 5 µM
CC1CCN(S(=O)(=O)c2ccc3oc(C(=O)NC4CCCC4)cc3c2)CC1 [compound 119]	< 5 µM
CC1CC(C)CN(S(=O)(=O)c2ccc3oc(C(=O)N4CCCCC4)cc3c2)C1 (stereo not shown) [compound 100]	< 5 µM
CCN(CC)S(=O)(=O)c1ccc2oc(C(=O)NC(C)C)c(C)c2c1 [compound 399]	< 20 µM
Cc1c(C(=O)N(C)Cc2ccccc2)oc2ccc(S(=O)(=O)N3CCC(C)CC3)cc12 [compound 464]	< 5 µM
Cc1c(C(=O)NCc2cccnc2)oc2ccc(S(=O)(=O)N3CC(C)CC(C)C3)cc12 (stereo not shown) [compound 63]	5 to 20 µM
CC1CCCCN1C(=O)c1cc2cc(S(=O)(=O)N3CCCCCC3)ccc2[nH]1 (stereo not shown) [compound 437]	< 20 µM
CCNC(=O)c1oc2ccc(S(=O)(=O)N3CCCC(C)C3)cc2c1C (stereo not shown) [compound 310]	5 to 20 µM
CC1CCN(S(=O)(=O)c2ccc3oc(C(=O)N4CCN(C)CC4)cc3c2)CC1 [compound 188]	5 to 20 µM
CCOC(=O)C1CCN(C(=O)c2oc3ccc(S(=O)(=O)N4CCC(C)CC4)cc3c2C)CC1 [compound 176]	< 5 µM
O=C(NCc1ccccc1)c1cc2cc(S(=O)(=O)N3CCCCCC3)ccc2n1S(=O)(=O)c1ccccc1 [compound 398]	< 5 µM
Cc1ccc(CNC(=O)c2oc3ccc(S(=O)(=O)N4CCCC4)cc3c2C)cc1 [compound 86]	5 to 20 µM
CCN(CC)C(=O)c1cc2cc(S(=O)(=O)N3CCC(C)CC3)ccc2o1 [compound 268]	< 5 µM
CC1CC(C)CN(S(=O)(=O)c2ccc3[nH]c(C(=O)N4CCCCCC4)cc3c2)C1 (stereo not shown) [compound 126]	< 5 µM
CNC(=O)c1oc2ccc(S(=O)(=O)N3CCCCCC3)cc2c1C [compound 145]	< 20 µM
CCCCN(C)C(=O)c1[nH]c2ccc(S(=O)(=O)N3CC(C)CC(C)C3)cc2c1C (stereo not shown) [compound 420]	< 5 µM
CC1CC(C)CN(S(=O)(=O)c2ccc3c(c2)cc(C(=O)N2CCCCC2)n3C)C1 (stereo not shown) [compound 391]	< 5 µM
COc1ccccc1CNC(=O)c1oc2ccc(S(=O)(=O)N3CCCCC3)cc2c1C [compound 76]	5 to 20 µM
CCCCN(C)C(=O)c1oc2ccc(S(=O)(=O)N3CCC(C)CC3)cc2c1C [compound 325]	< 5 µM
CC1CCN(S(=O)(=O)c2ccc3[nH]c(C(=O)NCCC4CCOCC4)cc3c2)CC1 [compound 8]	< 5 µM
